Data as given in US20130011376A1, “Methods for Enhancing Natural Killer Cell Proliferation and Activity” (GAMIDA CELL LTD., priority 2009, published 2013).

Legend:
[1] = test system: bone marrow derived CD56+ cells; assay: Proliferation and subsets of bone marrow derived CD56+ cells in culture; format: cell-based, human
Experimental: Bone marrow (BM) and peripheral blood (PB) cells were layered on a Ficoll-Hypaque gradient (1.077 g/mL; Sigma), and centrifuged at 800×g for 30 min. The mononuclear cells in the interface layer were collected and washed three times in phosphate-buffered saline (PBS) (Biological Industries, Israel) containing 0.5% HSA.
Cord blood (CB), bone marrow (BM) or peripheral blood (PB) cells were layered on a Ficoll-Hypaque gradient (1.077 g/mL; Sigma), and centrifuged at 800×g for 30 minutes for separation of the mononuclear cells. The cells in the interface layer were collected and washed three times in phosphate-buffered saline (PBS) (Biological Industries, Israel) containing 0.5% HSA. To purify the CD56+ cells, the mononuclear cell fraction was subjected to two cycles of immunomagnetic bead separation, using a “MiniMACS or CliniMACS CD56 progenitor cell isolation kit” (Miltenyi Biotec Bergisch, Gladbach, Germany), according to the manufacturer's recommendations. Briefly, CD56+ cells are reacted with CD56+ specific magnetic immunobeads, separated and with a magnetic separator, and purified from unbound cells by washing. The purity of the CD56+ population thus obtained is approximately 92%, as evaluated by flow cytometry.
(§1) 2. Purified CD56+ or CD56+CD3− cells from total nuclear or mononuclear cells or from the fraction depleted from CD34+ or CD133+ cells were cultured in culture bags, T-Flasks or 24 well plates at a concentration of 1-100×10^4 cells/ml in MEMα/10% FCS or CellGro SCGM (Cell Genix)/5% Human Serum/LiforCell® FBS Replacement (Lifeblood Products) containing the following human recombinant cytokines:, interleukin-2 (IL-2) (5-50 ng/ml), interleukin-15 (IL-15), FLT-3 or SCF or FLT3 and SCF or IL-2 and IL-15 or IL-2 only (Perpo Tech, Inc., Rocky Hill, N.J., USA), with or without nicotinamide, and incubated at 37° C. in a humidified atmosphere of 5% CO2 in air. The cultures were topped up once or twice a week with the same volume of fresh medium containing growth factors with or without nicotinamide. Eventually cultures can be supplemented once or several times a week with IL-2 and or IL-2 and IL-15. To estimate the number of cells in culture, cell samples were stained with trypan blue for counting. At various time points, samples were taken for FACS analysis to assay the relative fractions of NK cells, CD56+CD3−, CD56+CD3+, CD34+CD56+, CD56+CD16+ and/or CD56+ NKG2A cells.
To determine total number of cells on day 7, 14 and 21, the cell count/ml was multiplied by the volume of the culture medium. In order to determine the number of NK cells in culture, the total number of cells in culture was multiplied by the percent of CD56+/CD3− cells measured with the FACS on days 7, 14 or 21. To measure fold expansion, total number of NK cells on days 7, 14 and 21 was divided by total number of NK cells seeded in culture on day-0.
(§2) The cells were washed with a PBS solution containing 1% BSA, and stained (at 4° C. for 30 min) with fluorescein isothiocyanate (FITC)- or phycoerythrin (PE)-conjugated antibodies or allophycocyanin (APC). The cells were then washed in the above buffer and analyzed using a FACScalibur® flow cytometer (Becton Dickinson, San Jose, Calif., USA). The cells were passed at a rate of up to 1000 cells/second, using a 488 nm or 661 nm argon laser beam as the light source for excitation. Emission of 10^4 cells was measured using logarithmic amplification, and analyzed using the CellQuest software (Becton Dickinson). Cells stained with FITC, PE and APC-conjugated isotype control antibodies were used to determine background fluorescence.

[2] = test system: purified cord-blood derived CD56+ cells; assay: Inhibitory CD56+NKG2A cell fraction in cultured cord blood CD56+ cells (FACS); format: cell-based, human; conditions: 1, 2.5 and 5 mM nicotinamide, 3 weeks culture
Experimental: as §1, with “Eventually cultures can be supplemented once or several times a week with IL-2 and or IL-2 and IL-15. To estimate the number of cells in culture, cell samples were stained with trypan blue for counting. At various time points, samples were taken for FACS analysis to assay the relative fractions of NK cells, CD56+CD3−, CD56+CD3+, CD34+CD56+, CD56+CD16+ and/or CD56+ NKG2A cells.” left out
as §2, with “The cells were passed at a rate of up to 1000 cells/second, using a 488 nm or 661 nm argon laser beam as the light source for excitation.” left out, “fluorescence. […]” for “fluorescence.”

[3] = test system: CD3+ T cells and CD3+CD56+ NKT cells; assay: T and NKT cell fractions in peripheral blood NK cell cultures (FACS); format: cell-based, human; conditions: increasing nicotinamide concentration (2.5 to 7.5 mM), three weeks
Experimental: Purified CD56+ or CD56+CD3− cells from total nuclear or mononuclear cells or from the fraction depleted from CD34+ or CD133+ cells were cultured in culture bags, T-Flasks or 24 well plates at a concentration of 1-100×10^4 cells/ml in MEMα/10% FCS or CellGro SCGM (Cell Genix)/5% Human Serum/LiforCell® FBS Replacement (Lifeblood Products) containing the following human recombinant cytokines:, interleukin-2 (IL-2) (5-50 ng/ml), interleukin-15 (IL-15), FLT-3 or SCF or FLT3 and SCF or IL-2 and IL-15 or IL-2 only (Perpo Tech, Inc., Rocky Hill, N.J., USA), with or without nicotinamide, and incubated at 37° C. in a humidified atmosphere of 5% CO2 in air. The cultures were topped up once or twice a week with the same volume of fresh medium containing growth factors with or without nicotinamide. […]
The cells were washed with a PBS solution containing 1% BSA, and stained (at 4° C. for 30 min) with fluorescein isothiocyanate (FITC)- or phycoerythrin (PE)-conjugated antibodies or allophycocyanin (APC). The cells were then washed in the above buffer and analyzed using a FACScalibur® flow cytometer (Becton Dickinson, San Jose, Calif., USA). […] Emission of 10^4 cells was measured using logarithmic amplification, and analyzed using the CellQuest software (Becton Dickinson). Cells stained with FITC, PE and APC-conjugated isotype control antibodies were used to determine background fluorescence. […]

[4] = test system: cord-blood derived CD56+ cells; assay: Transwell chemotaxis (migration) assay; format: cell-based, human
Experimental: Chemotaxis (“migration”) assay: Migration response (chemotaxis) of human NK cells was assayed by Transwell migration assay (Costar, Cambridge, Mass.; 6.5-mm diameter, 5-μm pore size). Briefly, 100 μL chemotaxis buffer (RPMI 1640, 1% FCS) containing 2×10^5 NK cells was added to the upper chamber, and 0.5 mL chemotaxis buffer with or without 250 ng/ml stromal-derived factor CXCL12 (“SDF-1”) (R&D Systems) was added to the bottom chamber. Cells migrating within 4 hours to the bottom chamber of the “transwell” were counted for 60 seconds using FACScalibur (Becton Dickinson Immunocytometry Systems).

irradiated NOD/SCID mice = assay: In-vivo homing and engraftment of cultured human NK cells; conditions: 4 days post infusion
Experimental: NK cells were expanded with or without 2.5 mM or 5.0 mM nicotinamide, as described above. After 2-3 weeks in culture, similar numbers (15×10^6) of cells were infused into irradiated (350 Rad) NOD/SCID mice. Mice were sacrificed 4-days post infusion. Spleen, bone marrow and peripheral blood were analyzed for the homing and engraftment of human NK (CD45+CD56+) cells using […], in order to distinguish them from endogenous cells. Engraftment is expressed as the % of NK cells having the transplanted lineage (CD45+CD56+) using anti-human specific antibodies from the total number of mouse endogenous cells identified in the tissue.
Irradiated (350 Rad) NOD/SCID mice received 15×10^6 cells from human peripheral blood NK (T-cell depleted) cultures maintained for up to 3 weeks with (NAM 2.5 mM and NAM 5 mM) or without (NAM 0) nicotinamide. Upon sacrifice of the mice 4 days post infusion, samples of spleen, bone marrow and peripheral blood were evaluated by FACS for the presence of human NK cells (CD56+CD45+) using human specific Abs.

[5] = 1 mM, 2.5 mM and 5 mM nicotinamide, 7 days

NC(=O)c1cccnc1 [nicotinamide]
proliferation of CD56+CD3+ NKT cells [1, 5]: decreased proliferation | proliferation of the CD56+CD3- NK cell subset [1, 5]: enhancement of proliferation | proliferation of CD56+CD16+ NK cells ([1]; 2.5 mM and 5 mM nicotinamide, 7 days): most enhanced | increase of NK cell proliferation between 14 and 21 days ([1]; 2.5 mM nicotinamide): 50% | fraction of NK cells displaying the CD56+CD16+ phenotype vs cytokines alone ([1]; 2.5 mM nicotinamide, 14 and 21 days): significant increase | proliferation of NK cells (fold increase) ([1]; 2.5 mM nicotinamide, 14 days): 8 fold increase | proliferation of NK cells (fold increase) ([1]; 2.5 mM nicotinamide, 21 days): 12 fold increase | CD56+CD3- NK cells among cultured cells (dominance over CD56+CD3+ NKT cells) ([1]; nicotinamide treated cultures, 21 days): greater than 80% | prevalence of the inhibitory CD56+NKG2A cell fraction among NK cells [2]: significant and dose dependent reduction | fraction of CD3+ T cells [3]: reduction | fraction of CD3+CD56+ NKT cells [3]: reduction | migration in response to SDF stimulus ([4]; cells cultured with 2.5 or 5 mM nicotinamide, 250 ng/ml SDF): greatly enhanced | motility in the absence of SDF stimulus ([4]; nicotinamide-cultured CD56+ cells, no SDF): enhanced motility | localization and engraftment, higher vs lower nicotinamide concentration (irradiated NOD/SCID mice; 5 mM compared with 2.5 mM): stronger effect | localization and engraftment of human NK cells (CD56+CD45+) in spleen, bone marrow and peripheral blood (irradiated NOD/SCID mice; 15x10^6 cells cultured with 2.5 mM or 5 mM nicotinamide): increased localization and engraftment
